{"source": "patent US6914045B2", "about": "“Glycopeptide antibiotics” (Wyeth Holdings Corporation, priority 2001, dated 2005)", "assay_in_all_cases": "in vitro antibacterial evaluation, MIC by broth dilution", "type_in_all_cases": "cell-based", "key": {"[1]": {"system": "Enterococcus sp.", "conditions": "broth dilution, 18 hours at 35° C.", "in_short": "(§1)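 Broth dilution per NCCLS standard M7-A2 in Muller-Hinton II […], with an inoculum of 5×10^5 CFU/mL and antibiotic spanning 64-0.06 μg/mL. The MIC is the lowest concentration that inhibits growth of the organism.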"}, "[2]": {"system": "Escherichia coli", "conditions": "18 hours at 35° C., strain ATCC 25922", "in_short": "as §1"}, "[3]": {"system": "Staphylococcus sp.", "conditions": "broth dilution, 18 hours at 35° C.", "in_short": "as §1"}, "[4]": {"system": "Streptococcus sp.", "conditions": "broth dilution, 18 hours at 35° C.", "in_short": "as §1"}}, "data": [{"compound": "CCCCCC1OCC2OC(OC3C(CO)OC(Oc4ccc(CC5NC(=O)C(C(C)c6ccccc6)NC(=O)CNC(=O)C(CO)NC(=O)C(C(O)C6CNC(=N)N6C6OC(CO)C(O)C(O)C6O)NC(=O)C(C(O)C6CNC(=N)N6)NC5=O)cc4)C(O)C3O)C(O)C(O)C2O1", "note": "(stereo not drawn) [Example 108, Cyclo[glycyl-β-methylphenylalanyl-O-[4-O-(4,6-O-hexylidenehexopyranosyl)hexopyranosyl]-tyrosyl-3-(2-iminoimidazolidin-4-yl)seryl-3-(3-hexopyranosyl-2-iminoimidazolidin-4-yl)-serylseryl]]", "values": [{"measurement": "MIC Enterococcus avium (GC 4558)", "setting": "[1]; Enterococcus avium (GC 4558)", "result": 2, "unit": "µg/mL"}, {"measurement": "MIC Enterococcus faecalis (ATCC 29212)", "setting": "[1]; Enterococcus faecalis (ATCC 29212)", "result": 2, "unit": "µg/mL"}, {"measurement": "MIC Enterococcus faecalis (GC 2242)", "setting": "[1]; Enterococcus faecalis (GC 2242)", "result": 2, "unit": "µg/mL"}, {"measurement": "MIC Enterococcus faecalis (GC 4552)", "setting": "[1]; Enterococcus faecalis (GC 4552)", "result": 2, "unit": "µg/mL"}, {"measurement": "MIC Enterococcus faecalis (GC 4553)", "setting": "[1]; Enterococcus faecalis (GC 4553)", "result": 2, "unit": "µg/mL"}, {"measurement": "MIC Enterococcus faecalis (GC 4554)", "setting": "[1]; Enterococcus faecalis (GC 4554)", "result": 2, "unit": "µg/mL"}, {"measurement": "MIC Enterococcus faecium (GC 2243)", "setting": "[1]; Enterococcus faecium (GC 2243)", "result": 2, "unit": "µg/mL"}, {"measurement": "MIC Enterococcus faecium (GC 4556)", "setting": "[1]; Enterococcus faecium (GC 4556)", "result": 2, "unit": "µg/mL"}, {"measurement": "MIC Enterococcus faecium (GC 4557)", "setting": "[1]; Enterococcus faecium (GC 4557)", "result": 1, "unit": "µg/mL"}, {"measurement": "MIC Enterococcus faecalis (ATCC 29212)", "setting": "[1]; strain ATCC 29212", "result": 2, "unit": "µg/mL"}, {"measurement": "MIC Enterococcus faecalis (GC 2242)", "setting": "[1]; strain GC 2242", "result": 2, "unit": "µg/mL"}, {"measurement": "MIC Enterococcus faecium (GC 2243)", "setting": "[1]; strain GC 2243", "result": 2, "unit": "µg/mL"}, {"measurement": "MIC Enterococcus faecalis (GC 4552)", "setting": "[1]; strain GC 4552", "result": 2, "unit": "µg/mL"}, {"measurement": "MIC Enterococcus faecalis (GC 4553)", "setting": "[1]; strain GC 4553", "result": 2, "unit": "µg/mL"}, {"measurement": "MIC Enterococcus faecalis (GC 4554)", "setting": "[1]; strain GC 4554", "result": 2, "unit": "µg/mL"}, {"measurement": "MIC Enterococcus faecium (GC 4556)", "setting": "[1]; strain GC 4556", "result": 2, "unit": "µg/mL"}, {"measurement": "MIC Enterococcus faecium (GC 4557)", "setting": "[1]; strain GC 4557", "result": 1, "unit": "µg/mL"}, {"measurement": "MIC Enterococcus avium (GC 4558)", "setting": "[1]; strain GC 4558", "result": 2, "unit": "µg/mL"}, {"measurement": "MIC Escherichia coli (ATCC 25922)", "setting": "[2]", "result": 32, "unit": "µg/mL"}, {"measurement": "MIC Coagulase Negative Staphylococcus (GC 4547)", "setting": "[3]", "result": 1, "unit": "µg/mL"}, {"measurement": "MIC Coagulase Negative Staphylococcus (GC 4548)", "setting": "[3]", "result": "<0.5", "unit": "µg/mL"}, {"measurement": "MIC Coagulase Negative Staphylococcus (GC 4549)", "setting": "[3]", "result": 1, "unit": "µg/mL"}, {"measurement": "MIC Coagulase Negative Staphylococcus (GC 4551)", "setting": "[3]", "result": 1, "unit": "µg/mL"}, {"measurement": "MIC Coagulase Negative Staphylococcus (ID-3941)", "setting": "[3]", "result": 1, "unit": "µg/mL"}, {"measurement": "MIC Staphylococcus aureus (ATCC 29213)", "setting": "[3]", "result": 1, "unit": "µg/mL"}, {"measurement": "MIC Staphylococcus aureus (GC 1131)", "setting": "[3]", "result": 1, "unit": "µg/mL"}, {"measurement": "MIC Staphylococcus aureus (GC 4541)", "setting": "[3]", "result": 1, "unit": "µg/mL"}, {"measurement": "MIC Staphylococcus aureus (GC 4542)", "setting": "[3]", "result": 1, "unit": "µg/mL"}, {"measurement": "MIC Staphylococcus aureus (GC 4544)", "setting": "[3]", "result": 1, "unit": "µg/mL"}, {"measurement": "MIC Staphylococcus aureus (GC 4545)", "setting": "[3]", "result": 1, "unit": "µg/mL"}, {"measurement": "MIC Staphylococcus aureus-SMITH (GC 4543)", "setting": "[3]", "result": 1, "unit": "µg/mL"}, {"measurement": "MIC Staphylococcus haemolyticus (GC 4546)", "setting": "[3]", "result": 1, "unit": "µg/mL"}, {"measurement": "MIC Staphylococcus aureus (GC 1131)", "setting": "[3]; inoculum 5×10^5 CFU/mL, strain GC 1131", "result": 1, "unit": "µg/mL"}, {"measurement": "MIC Staphylococcus aureus (ATCC 29213)", "setting": "[3]; strain ATCC 29213", "result": 1, "unit": "µg/mL"}, {"measurement": "MIC Staphylococcus aureus (GC 4541)", "setting": "[3]; strain GC 4541", "result": 1, "unit": "µg/mL"}, {"measurement": "MIC Staphylococcus aureus (GC 4542)", "setting": "[3]; strain GC 4542", "result": 1, "unit": "µg/mL"}, {"measurement": "MIC Staphylococcus aureus (GC 4544)", "setting": "[3]; strain GC 4544", "result": 1, "unit": "µg/mL"}, {"measurement": "MIC Staphylococcus aureus (GC 4545)", "setting": "[3]; strain GC 4545", "result": 1, "unit": "µg/mL"}, {"measurement": "MIC Staphylococcus haemolyticus (GC 4546)", "setting": "[3]; strain GC 4546", "result": 1, "unit": "µg/mL"}, {"measurement": "MIC Coagulase Negative Staphylococcus (GC 4547)", "setting": "[3]; strain GC 4547", "result": 1, "unit": "µg/mL"}, {"measurement": "MIC Coagulase Negative Staphylococcus (GC 4548)", "setting": "[3]; strain GC 4548", "result": "<0.5", "unit": "µg/mL"}, {"measurement": "MIC Coagulase Negative Staphylococcus (GC 4549)", "setting": "[3]; strain GC 4549", "result": 1, "unit": "µg/mL"}, {"measurement": "MIC Coagulase Negative Staphylococcus (GC 4551)", "setting": "[3]; strain GC 4551", "result": 1, "unit": "µg/mL"}, {"measurement": "MIC Coagulase Negative Staphylococcus (ID-3941)", "setting": "[3]; strain ID-3941", "result": 1, "unit": "µg/mL"}, {"measurement": "MIC Staphylococcus aureus-SMITH (GC 4543)", "setting": "[3]; strain SMITH GC 4543", "result": 1, "unit": "µg/mL"}, {"measurement": "MIC Streptococcus agalactiae (GC 4564)", "setting": "[4]; Streptococcus agalactiae (GC 4564)", "result": "<0.5", "unit": "µg/mL"}, {"measurement": "MIC Streptococcus pneumoniae (GC 4565)", "setting": "[4]; Streptococcus pneumoniae (GC 4565)", "result": "<0.5", "unit": "µg/mL"}, {"measurement": "MIC Streptococcus pyogenes (ID-3187)", "setting": "[4]; Streptococcus pyogenes (ID-3187)", "result": "<0.5", "unit": "µg/mL"}, {"measurement": "MIC Streptococcus agalactiae (GC 4564)", "setting": "[4]; strain GC 4564", "result": "<0.5", "unit": "µg/mL"}, {"measurement": "MIC Streptococcus pneumoniae (GC 4565)", "setting": "[4]; strain GC 4565", "result": "<0.5", "unit": "µg/mL"}, {"measurement": "MIC Streptococcus pyogenes (ID-3187)", "setting": "[4]; strain ID-3187", "result": "<0.5", "unit": "µg/mL"}]}]}
